Ki, IC50 and Activity data for 21 compounds are collected here from ChEMBL document CHEMBL4376843 (J Med Chem, 2020).

The Ki is a dissociation constant, usually derived from enzyme kinetics or from competition with a known ligand. The term IC50 denotes the midpoint of a concentration-inhibition curve.

The target of assay [1] is Carbonic anhydrase 9 (Homo sapiens, UniProt Q16790).
Assay [2] has as its system PC-3. The assay can be described thus: cells. Conditions: Homo sapiens, PC-3, 72 h. The assay is classed as functional, cell-based.
Description: Antiproliferative activity against human PC3 cells measured after 72 hrs under CoCl2-induced hypoxic condition by MTT assay
The test system of assay [3] is WI-38. The assay can be described thus: Cytotoxicty activity against human WI38 cells measured after 72 hrs by MTT assay. The assay is classed as cell-based. The note with it: WI-38, 72 h. For orientation: Formazan colour is commonly taken as a measure of viable cells.
The subject of assay [4] is HCT-116. The assay can be described thus: Induction of apoptosis in human HCT116 cells assessed as downregulation of Bcl-2 expression at normoxic antiproliferative IC50 measured after 48 hrs by ELISA relative to control. Type of assay: functional.
Assay [5] addresses Carbonic anhydrase 4 (Homo sapiens, UniProt P22748).
Assay [6] concerns the target Carbonic anhydrase 7 (Homo sapiens, UniProt P43166).
Assay [7] has as its target Carbonic anhydrase 2 (Homo sapiens, UniProt P00918).
The test system of assay [8] is A549. Put plainly: cells. The note with it: Homo sapiens, A549, 72 h. Type of assay: functional, cell-based.
Description: Antiproliferative activity against human A549 cells measured after 72 hrs under CoCl2-induced hypoxic condition by MTT assay
Assay [9] relates to HCT-116. Put plainly: cells. Type of assay: functional, cell-based. The note with it: Homo sapiens, HCT-116, 72 h.
Description: Antiproliferative activity against human HCT116 cells measured after 72 hrs under normoxic condition by MTT assay
Assay [10] has as its target Carbonic anhydrase 1 (Homo sapiens, UniProt P00915).
Assay [11] relates to HCT-116. The assay can be described thus: cells. The assay is classed as functional, cell-based. The note with it: Homo sapiens, HCT-116, 72 h. The source holds these as a separate data set.
Description: Antiproliferative activity against human HCT116 cells measured after 72 hrs under CoCl2-induced hypoxic condition by MTT assay
Assay [12] has as its system PC-3. The assay can be described thus: cells. The note with it: Homo sapiens, PC-3, 72 h. The assay is classed as functional, cell-based. This is another data set of the same source.
Description: Antiproliferative activity against human PC3 cells measured after 72 hrs under normoxic condition by MTT assay
Assay [13] deals with A549. The assay can be described thus: cells. The assay is classed as functional, cell-based. Conditions: Homo sapiens, A549, 72 h. The source holds these as a separate data set.
Description: Antiproliferative activity against human A549 cells measured after 72 hrs under normoxic condition by MTT assay

Carbonic anhydrase 1, sequence (P00915 whole entry): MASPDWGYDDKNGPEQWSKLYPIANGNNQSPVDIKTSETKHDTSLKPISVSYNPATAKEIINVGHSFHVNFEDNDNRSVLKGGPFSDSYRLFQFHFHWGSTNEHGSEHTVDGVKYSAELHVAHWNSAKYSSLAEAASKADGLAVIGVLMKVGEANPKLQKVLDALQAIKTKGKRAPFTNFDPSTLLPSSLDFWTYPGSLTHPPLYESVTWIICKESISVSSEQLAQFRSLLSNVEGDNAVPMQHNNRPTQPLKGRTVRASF
Carbonic anhydrase 4, sequence (P22748 whole entry): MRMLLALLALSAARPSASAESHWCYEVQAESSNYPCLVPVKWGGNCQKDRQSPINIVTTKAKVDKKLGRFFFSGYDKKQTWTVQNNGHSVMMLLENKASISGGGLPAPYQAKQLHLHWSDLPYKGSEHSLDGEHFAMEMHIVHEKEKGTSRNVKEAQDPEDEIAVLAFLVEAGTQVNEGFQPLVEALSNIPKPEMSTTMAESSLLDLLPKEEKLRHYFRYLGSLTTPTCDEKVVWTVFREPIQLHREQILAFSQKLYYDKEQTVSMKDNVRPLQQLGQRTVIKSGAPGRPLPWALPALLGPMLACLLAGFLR
Carbonic anhydrase 7, sequence (P43166 whole entry): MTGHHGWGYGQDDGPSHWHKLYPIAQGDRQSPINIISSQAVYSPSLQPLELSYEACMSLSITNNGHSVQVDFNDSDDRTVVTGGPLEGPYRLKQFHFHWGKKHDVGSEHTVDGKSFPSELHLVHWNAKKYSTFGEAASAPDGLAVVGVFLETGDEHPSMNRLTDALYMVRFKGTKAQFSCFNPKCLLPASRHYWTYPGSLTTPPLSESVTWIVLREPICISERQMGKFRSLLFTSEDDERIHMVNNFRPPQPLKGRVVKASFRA

For the compound `O=C1Nc2ccc(F)cc2S(=O)(=O)N1`, the Ki in assay [1] was determined as 19.1 nM; in assay [5], 709 nM; in [6] it was 436 nM; in [7] it was 534 nM; in assay [10], 1290 nM. The IC50 in [2] is 6530 nM; in assay [3] it was 125000 nM; in [8], 15000 nM; in assay [9], 3860 nM; in assay [11] it was 2730 nM; in [12] it was 12000 nM. This compound showed an IC50 in [13] of 18300 nM. The Activity in [4] was 42%.

Consider `O=C1Nc2c(F)cccc2S(=O)(=O)N1`, for which the Ki is 58.4 nM in [1]; 461 nM in assay [5]; 126 nM in assay [6]; 140 nM in assay [7]; 547 nM in [10].

For `O=C1Nc2ccc(O)cc2S(=O)(=O)N1`, the Ki in assay [1] worked out at 88.1 nM; in assay [5], 452 nM; in assay [6], 2560 nM; in assay [7], 3020 nM; in assay [10], 1890 nM.

Regarding `Cc1cc(C)c2c(c1)NC(=O)NS2(=O)=O`, the Ki in assay [1] is 408 nM; in assay [5], 2690 nM; in [6], 1790 nM; in [7], 2940 nM; in [10], 1920 nM.

As to `O=C1Nc2ccc(C(=O)O)cc2S(=O)(=O)N1`, the Ki in [1] was 98.7 nM; in assay [5] it was 76.1 nM; in [6], 4960 nM; in assay [7] it was 6780 nM; in assay [10], > 10000 nM.

On to `O=C1Nc2c(C(=O)O)cccc2S(=O)(=O)N1`, for which the inhibition constant (Ki) in [1] is 91.2 nM; in [5], 380 nM; in [6], 2800 nM; in assay [7], 2440 nM; in assay [10], 5780 nM.

In the case of `O=C1NS(=O)(=O)c2cccc3c2N1CC3`, the Ki in assay [1] turned out to be 273 nM; in [5], 3890 nM; in [6], 1280 nM; in [7], 1060 nM; in assay [10], 6860 nM.

As for `Cc1ccc(C)c2c1NC(=O)NS2(=O)=O`, the Ki in assay [1] was 368 nM; in [5], 1430 nM; in assay [6] it was 1900 nM; in assay [7], 2190 nM; in assay [10], 2540 nM.

For `O=C1Nc2ccc(Br)cc2S(=O)(=O)N1`, the Ki in assay [1] was 31 nM; in [5], 1560 nM; in [6], 468 nM; in [7], 2360 nM; in [10], 4400 nM.

Consider `Cc1ccc2c(c1)S(=O)(=O)NC(=O)N2`, for which the inhibitory constant (Ki) is 45.8 nM in assay [1]; 897 nM in assay [5]; 956 nM in assay [6]; 872 nM in assay [7]; 1070 nM in assay [10].

In the case of `Cc1cccc2c1NC(=O)NS2(=O)=O`, the Ki in assay [1] came out at 63.9 nM; in assay [5] it was 1230 nM; in assay [6], 975 nM; in assay [7], 144 nM; in [10], 969 nM.

On to `CN1C(=O)NS(=O)(=O)c2cc(Cl)ccc21`, for which the Ki is 189 nM in assay [1]; 5880 nM in [5]; 3240 nM in assay [6]; 2340 nM in assay [7]; > 10000 nM in assay [10].

With `O=C1Nc2c(Br)cccc2S(=O)(=O)N1`, the Ki came out at 73.3 nM in assay [1]; 854 nM in assay [5]; 620 nM in [6]; 527 nM in [7]; 2320 nM in assay [10].

Consider `Cc1cc(C)c2c(c1)S(=O)(=O)NC(=O)N2`, for which the Ki worked out at 25.8 nM in assay [1]; 1640 nM in assay [5]; 691 nM in [6]; 764 nM in [7]; 1270 nM in [10]. The IC50 in assay [2] is 820 nM; in assay [3], 23500 nM; in assay [8], 5740 nM; in [9], 3850 nM; in [11], 4180 nM; in [12] it was 6310 nM. The compound further gave an IC50 in [13] of 4770 nM.

With `O=C1Nc2c(ccc3ccccc23)S(=O)(=O)N1`, the Ki in [1] came out at 60.2 nM; in [5], 2670 nM; in assay [6] it was 3950 nM; in [7], 484 nM; in assay [10], 2070 nM.

With `CN1C(=O)NS(=O)(=O)c2ccccc21`, the Ki in assay [1] came to 139 nM; in [5] it was 3460 nM; in [6], 7510 nM; in [7], 853 nM; in assay [10], 3410 nM. In addition, the IC50 came out at 16900 nM in assay [2]; 40900 nM in assay [3]; 16300 nM in [8]; 10900 nM in assay [9]; 7130 nM in [11]; 23800 nM in assay [12]. For the same compound, the IC50 in [13] stood at 19900 nM.

Take `O=C1Nc2ccccc2S(=O)(=O)N1`: the Ki in assay [1] is 78.7 nM; in assay [5], 675 nM; in assay [6], 466 nM; in assay [7], 150 nM; in [10] it was 866 nM. Moreover, the IC50 worked out at 12200 nM in assay [2]; 39900 nM in [3]; 2680 nM in assay [8]; 1300 nM in assay [9]; 1500 nM in assay [11]; 14000 nM in assay [12]. Further, in assay [13], inhibition was half-maximal at 3530 nM (IC50). In addition, in assay [4], the Activity worked out at 59%.

With `O=C1NS(=O)(=O)c2ccccc21` [SACCHARIN], the Ki in assay [10] is > 10000 nM.

For `O=C1Nc2ccc(Cl)cc2S(=O)(=O)N1`, the Ki stood at 56.9 nM in assay [1]; 1750 nM in assay [5]; 1180 nM in assay [6]; 1140 nM in [7]; 1860 nM in assay [10].

Consider `COc1ccc2c(c1)S(=O)(=O)NC(=O)N2`, for which the Ki amounted to 35.8 nM in assay [1]; 1940 nM in [5]; 1360 nM in assay [6]; 1920 nM in assay [7]; 3810 nM in [10].

As to `O=C1Nc2c(Cl)cccc2S(=O)(=O)N1`, the Ki turned out to be 28.2 nM in [1]; 1030 nM in [5]; 389 nM in [6]; 685 nM in assay [7]; 930 nM in [10]. Further, the IC50 in assay [2] turned out to be 3520 nM; in [3], 36600 nM; in assay [8] it was 7350 nM; in assay [9], 5260 nM; in assay [11], 7570 nM; in assay [12], 16200 nM. This compound also returned an IC50 in assay [13] of 10900 nM.
